ChEMBL document CHEMBL1201862, “PubChem BioAssay data set” (2004)
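In this assay, cells in 96-well plates receive the compound at five concentrations for 48 hours. Endpoints are linearly interpolated between the surrounding concentrations. GI50 is the concentration that inhibits growth by half.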 The source made the active and inactive calls. Cut-off read from the data, not from the text of the source: active = GI50 up to about 1.1 µM and inactive = higher.

Experiments:
Test in all cases: NCI tumour cell line growth inhibition, 48 h
U-251 = system: U-251
SN12C = system: SN12C
SNB-75 = system: SNB-75
CAKI-1 = system: CAKI-1
EKVX = system: EKVX
PC-3 = system: PC-3
MDA-MB-435 = system: MDA-MB-435
KM12 = system: KM12
OVCAR-5 = system: OVCAR-5
RPMI-8226 = system: RPMI-8226
RXF 393 = system: RXF 393
HOP-62 = system: HOP-62
SR = system: SR
NCI-H226 = system: NCI-H226
IGROV-1 = system: IGROV-1
MOLT-4 = system: MOLT-4
HOP-92 = system: HOP-92
SK-MEL-2 = system: SK-MEL-2
NCI-H522 = system: NCI-H522
MCF7 = system: MCF7
M14 = system: M14
SF-268 = system: SF-268
LOX IMVI = system: LOX IMVI
K562 = system: K562
T47D = system: T47D
HL-60 = system: HL-60
OVCAR-4 = system: OVCAR-4
SK-MEL-28 = system: SK-MEL-28
A549 = system: A549
HCT-116 = system: HCT-116
SK-MEL-5 = system: SK-MEL-5
COLO 205 = system: COLO 205
NCI/ADR-RES = system: NCI/ADR-RES
OVCAR-8 = system: OVCAR-8
OVCAR-3 = system: OVCAR-3
HCC 2998 = system: HCC 2998
HT-29 = system: HT-29
Malme-3M = system: Malme-3M
CCRF-CEM = system: CCRF-CEM
HCT-15 = system: HCT-15
NCI-H460 = system: NCI-H460
SNB-19 = system: SNB-19
SW-620 = system: SW-620
A498 = system: A498
UACC-62 = system: UACC-62
ACHN = system: ACHN
SK-OV-3 = system: SK-OV-3
NCI-H23 = system: NCI-H23
DU-145 = system: DU-145
BT-549 = system: BT-549
MDA-N = system: MDA-N
786-0 = system: 786-0
Hs-578T = system: Hs-578T
SF-295 = system: SF-295
UO-31 = system: UO-31
UACC-257 = system: UACC-257

## CC1(C)CC[C@]2(C(=O)O)[C@H](O)C[C@]3(C)C(=CC[C@@H]4[C@@]5(C)CC[C@H](OC6OC(C(=O)O)C(O)C(O)C6O)C(C)(C)[C@@H]5CC[C@]43C)[C@@H]2C1 (stereo partly specified)
U-251
  GI50: 41 µM (inactive)
SN12C
  GI50: 27.1 µM (inactive)
SNB-75
  GI50: 46.7 µM (inactive)
CAKI-1
  GI50: > 100 µM (inactive)
EKVX
  GI50: 78.3 µM (inactive)
PC-3
  GI50: > 100 µM (inactive)
MDA-MB-435
  GI50: > 100 µM (inactive)
KM12
  GI50: 56.2 µM (inactive)
OVCAR-5
  GI50: > 100 µM (inactive)
RPMI-8226
  GI50: > 100 µM (inactive)
RXF 393
  GI50: 26.1 µM (inactive)
HOP-62
  GI50: > 100 µM (inactive)
SR
  GI50: 21.3 µM (inactive)
NCI-H226
  GI50: > 100 µM (inactive)
IGROV-1
  GI50: > 100 µM (inactive)
MOLT-4
  GI50: > 100 µM (inactive)
HOP-92
  GI50: 20.3 µM (inactive)
SK-MEL-2
  GI50: > 100 µM (inactive)
NCI-H522
  GI50: > 100 µM (inactive)
MCF7
  GI50: > 100 µM (inactive)
M14
  GI50: > 100 µM (inactive)
SF-268
  GI50: 88.5 µM (inactive)
LOX IMVI
  GI50: 64.3 µM (inactive)
K562
  GI50: 95.9 µM (inactive)
T47D
  GI50: > 100 µM (inactive)
HL-60
  GI50: 22.6 µM (inactive)
OVCAR-4
  GI50: 22.3 µM (inactive)
SK-MEL-28
  GI50: 18.3 µM (inactive)
A549
  GI50: > 100 µM (inactive)
HCT-116
  GI50: > 100 µM (inactive)
SK-MEL-5
  GI50: > 100 µM (inactive)
COLO 205
  GI50: > 100 µM (inactive)
NCI/ADR-RES
  GI50: > 100 µM (inactive)
OVCAR-8
  GI50: 65.6 µM (inactive)
OVCAR-3
  GI50: > 100 µM (inactive)
HCC 2998
  GI50: 27.2 µM (inactive)
HT-29
  GI50: > 100 µM (inactive)
Malme-3M
  GI50: > 100 µM (inactive)
CCRF-CEM
  GI50: 36.9 µM (inactive)
HCT-15
  GI50: 58.2 µM
NCI-H460
  GI50: > 100 µM (inactive)
SNB-19
  GI50: 52.7 µM (inactive)
SW-620
  GI50: > 100 µM (inactive)
A498
  GI50: 22.2 µM (inactive)
UACC-62
  GI50: 23.6 µM (inactive)
ACHN
  GI50: 40.4 µM (inactive)
SK-OV-3
  GI50: > 100 µM (inactive)
NCI-H23
  GI50: > 100 µM (inactive)
DU-145
  GI50: 96.4 µM (inactive)
BT-549
  GI50: 18.5 µM (inactive)
MDA-N
  GI50: > 100 µM (inactive)
786-0
  GI50: > 100 µM (inactive)
Hs-578T
  GI50: 28.2 µM (inactive)
SF-295
  GI50: 46.1 µM (inactive)
UO-31
  GI50: 17.4 µM (inactive)
UACC-257
  GI50: > 100 µM (inactive)
